Laboratory results from US20260231940A1, “METHOD FOR ATTRACTING COCKROACHES, COCKROACH ATTRACTANT, AND METHOD FOR CONTROLLING COCKROACHES” (SUMITOMO CHEMICAL COMPANY, LIMITED, priority 2023, published 2026).

Tests used:
Assay type in all cases: in vivo
[1] = test system: Blattella germanica; test: Test Example 4: choice test, methoprene-applied filter paper uneven sheet; conditions: 1 g methoprene per 1 m^2, four hours after release, total of eight repetitions
Description: (§1) FIG. 3 is a planar view schematically illustrating the test space used in Test Examples 1 to 5. […] Depending on the test system, a container 2 containing solid feed for MF mouse rats as bait and a container 3 containing water were placed between these two uneven sheets 1.
(§2) A sheet formed from a filter paper (ADVANTEC qualitative filter paper No. 2, manufactured by Toyo Roshi Kaisha, Ltd.) wherein the sheet was a triangular wave shape in its cross-sectional shape as shown in FIG. 2(b) was used. Specifically, an uneven sheet (a corrugated sheet) the depth of the concave portion and the height of the convex portion of which were each 17 mm, and where the concave portions and the convex portions were formed in a corrugated shape so that the angle at the vertices of the concave portions might be 60° was prepared.
(§3) As the uneven sheets 1 placed in the test space 20, all those being 10 cm×16 cm in size were used, and they were placed so that the ridge lines of the corrugations of the uneven sheets 1 were parallel to the lengthwise direction of the test space 20. […]
(§4) In the test space 20 prepared as described above, Blattella germanica (30 individuals in total) were released, and four hours later, the number of individuals settled in each uneven sheet 1 and the number of individuals present in the test space 20 other than the uneven sheets 1 were counted. […]

[2] = test system: Blattella germanica; test: Test Example 3: choice test, bistrifluron-applied filter paper uneven sheet; conditions: 1 g bistrifluron per 1 m^2, four hours after release, total of four repetitions
Description: as §1, §2, §3, §4

[3] = test system: Blattella germanica; test: Test Example 5: choice test, hydroprene-applied filter paper uneven sheet; conditions: 500 mg hydroprene per 1 m^2, 24 hours after release, total of eight repetitions
Description: as §1, §2, §3
In the test space 20 prepared as described above, Blattella germanica (30 individuals in total) were released, and 24 hours later, the number of individuals settled in each uneven sheet 1 and the number of individuals present in the test space 20 other than the uneven sheets 1 were counted. […]

[4] = test system: Blattella germanica; test: Test Example 2: choice test, pyriproxyfen amount series on uneven sheet; conditions: four hours after release, total of four repetitions; for Number of individuals Uneven sheet (chemical applied): 120 released
Protocol: (§5) Specifically, an uneven sheet (a corrugated sheet) the depth of the concave portion and the height of the convex portion of which were each 10 mm, and where the concave portions and the convex portions were formed in a corrugated shape so that the angle at the vertices of the concave portion might be 53° was prepared. The uneven sheet was used in Test Example 1 and Test Example 2.
as §1
As the uneven sheets 1 placed in the test space 20, all those being 10 cm×16 cm in size were used, and they were placed so that the ridge lines of the corrugations of the uneven sheets 1 were parallel to the lengthwise direction of the test space 20. Additionally, containers 2 and 3 containing feed and water respectively were placed between the facing uneven sheets 1.
In the test space 20 prepared as described above, Blattella germanica (30 individuals in total) were released, and four hours later, the number of individuals settled in each uneven sheet 1 and the number of individuals present in the test space 20 other than the uneven sheets 1 were counted. The above test was conducted in four repetitions.

[5] = test system: Plodia interpunctella larvae; test: Test Example 1: choice test, chemical-applied versus blank uneven sheet; conditions: 1 g pyriproxyfen per 1 m^2, four days after release, total of two repetitions
Protocol: as §5, §1
(§6) As the uneven sheets 1 placed in the test space 20, all those being 10 cm×10 cm in size were used, and they were placed so that the ridge lines of the corrugations of the uneven sheets 1 were parallel to the lengthwise direction of the test space 20.
(§7) As test insects, Periplaneta americana nymphs, Cimex lectularius, Dermanyssus gallinae, Sitophilus zeamais, and Plodia interpunctella larvae were used. Cimex lectularius and Dermanyssus gallinae were released into each test space 20 where feed and water had not been placed and only corrugated sheets 1 had been placed. Periplaneta americana nymphs were released into test space 20 where containers 2 and 3 containing feed and water respectively placed between the facing uneven sheets 1 as shown in FIG. 3. Sitophilus zeamais and Plodia interpunctella larvae were released into each test space 20 where feed and water had not been placed and brown rice had been placed on uneven sheets 1 as a hiding place for the test insects.
(§8) Four days after releasing the insects, the number of individuals settled in each uneven sheet 1 and the number of individuals present in the test space 20 other than the uneven sheets 1 were counted. The above test was conducted in two repetitions.

[6] = test system: Periplaneta americana nymphs; test: as above
Protocol: as §5, §1, §6, §7, §8

[7] = test system: Cimex lectularius; test: as above; conditions: 1 g pyriproxyfen per 1 m^2, four days after release, total of two repetitions
Protocol: as §5, §1, §6, §7, §8

[8] = test system: Sitophilus zeamais; test: as above; conditions: 1 g pyriproxyfen per 1 m^2, four days after release, total of two repetitions
Protocol: as §5, §1, §6, §7, §8

[9] = test system: Dermanyssus gallinae; test: as above; conditions: 1 g pyriproxyfen per 1 m^2, four days after release, total of two repetitions
Protocol: as §5, §1, §6, §7, §8

[10] = 60 released, brown rice on sheets

COC(C)(C)CCC[C@H](C)C/C=C/C(C)=C/C(=O)OC(C)C (racemic) [methoprene]
Number of individuals Uneven sheet (chemical applied) ([1]; 240 released): 152 | Hiding rate (Chemical applied / Blank) [1]: 2.92

O=C(NC(=O)c1c(F)cccc1F)Nc1cc(C(F)(F)F)cc(C(F)(F)F)c1Cl [bistrifluron]
Number of individuals Uneven sheet (chemical applied) ([2]; 120 released): 71 | Hiding rate (Chemical applied / Blank) [2]: 2.29

CCOC(=O)/C=C(C)/C=C/CC(C)CCCC(C)C (centres unmarked) [hydroprene]
Number of individuals Uneven sheet (chemical applied) ([3]; 240 released): 160 | Hiding rate (Chemical applied / Blank) [3]: 2.13

CC(COc1ccc(Oc2ccccc2)cc1)Oc1ccccn1 (centres unmarked) [pyriproxyfen]
Number of individuals Uneven sheet (chemical applied) ([4]; 10 mg/m^2 pyriproxyfen): 78 | Hiding rate (Chemical applied / Blank) ([4]; 10 mg/m^2 pyriproxyfen): 1.95 | Number of individuals Uneven sheet (chemical applied) ([4]; 100 mg/m^2 pyriproxyfen): 70 | Hiding rate (Chemical applied / Blank) ([4]; 100 mg/m^2 pyriproxyfen): 1.52 | Number of individuals Uneven sheet (chemical applied) ([4]; 500 mg/m^2 pyriproxyfen): 98 | Hiding rate (Chemical applied / Blank) ([4]; 500 mg/m^2 pyriproxyfen): 5.44 | Number of individuals Uneven sheet (chemical applied) ([4]; 1000 mg/m^2 pyriproxyfen): 91 | Hiding rate (Chemical applied / Blank) ([4]; 1000 mg/m^2 pyriproxyfen): 3.25 | Number of individuals Uneven sheet (chemical applied) ([4]; 2000 mg/m^2 pyriproxyfen): 67 | Hiding rate (Chemical applied / Blank) ([4]; 2000 mg/m^2 pyriproxyfen): 1.40 | Number of individuals Uneven sheet (chemical applied) ([4]; 5000 mg/m^2 pyriproxyfen): 71 | Hiding rate (Chemical applied / Blank) ([4]; 5000 mg/m^2 pyriproxyfen): 1.54 | Number of individuals Uneven sheet (chemical applied) [5, 10]: 23 | Hiding rate (Chemical applied / Blank) [5]: 0.62 | Number of individuals Uneven sheet (chemical applied) ([6]; Periplaneta americana nymphs, 1 g pyriproxyfen per 1 m^2, four days after release, 60 released, total of two repetitions, feed and water placed): 39 | Hiding rate (Chemical applied / Blank) ([6]; Periplaneta americana nymphs, 1 g pyriproxyfen per 1 m^2, four days after release, total of two repetitions): 1.86 | attracting effect ([6]; conclusion from Table 1: Periplaneta americana nymphs versus the four other test species): specific to cockroaches | Number of individuals Uneven sheet (chemical applied) ([7]; 30 released, no feed or water): 12 | Hiding rate (Chemical applied / Blank) [7]: 0.75 | Number of individuals Uneven sheet (chemical applied) [8, 10]: 21 | Hiding rate (Chemical applied / Blank) [8]: 0.64 | Number of individuals Uneven sheet (chemical applied) ([9]; 59 released, no feed or water): 17 | Hiding rate (Chemical applied / Blank) [9]: 0.94
